In the CheMixHub drug solubility set:

Test: xn = mol fraction of the nth substance listed, in the solute-free solvent

Nc1cccc(S(=O)(=O)c2cccc(N)c2)c1 + CC(C)O + O
solubility (g/100 g solution)
Details	283.15 K	288.15 K	293.15 K	298.15 K	303.15 K	308.15 K	313.15 K	318.15 K	323.15 K	328.15 K
x2 = 0.03225	0.0588	0.08	0.109	0.143	0.188	0.248	0.319	0.411	0.517	0.662
x2 = 0.06974	0.109	0.146	0.196	0.259	0.34	0.424	0.549	0.698	0.874	1.09
x2 = 0.1139	0.169	0.219	0.286	0.375	0.488	0.618	0.782	0.98	1.22	1.52
x2 = 0.1666	0.236	0.312	0.396	0.516	0.657	0.834	1.05	1.3	1.59	1.98
x2 = 0.2307	0.299	0.388	0.5	0.652	0.816	1.02	1.28	1.6	1.97	2.4
x2 = 0.3103	0.36	0.459	0.599	0.751	0.954	1.2	1.51	1.84	2.24	2.73
x2 = 0.4117	0.398	0.513	0.662	0.841	1.07	1.34	1.65	2.05	2.48	3.01
x2 = 0.5454	0.424	0.54	0.702	0.895	1.11	1.4	1.71	2.14	2.62	3.17
x2 = 0.7297	0.432	0.543	0.686	0.878	1.11	1.38	1.72	2.09	2.57	3.12

OCCN(CCO)c1nc(N2CCCCC2)c2nc(N(CCO)CCO)nc(N3CCCCC3)c2n1 + CC(C)O + O
solubility (g/100 g solution)
Details	293.15 K	298.15 K	303.15 K	308.15 K	313.15 K	318.15 K	323.15 K	328.15 K
x2 = 0.3	4.66	6.62	8.49	11.6	14.9	19.9	27.3	32.8
x2 = 0.4	7.42	9.61	12.4	15.3	20.2	25.6	32.3	39.9
x2 = 0.5	8.69	11.8	14.9	18.1	21.7	27.7	33.4	39.5
x2 = 0.6	9.25	11.6	14.6	18	20.8	26.6	31.7	37.5
x2 = 0.7	8.37	9.97	12.7	15.8	19.1	23.7	28.6	33.6
x2 = 0.8	6.58	8.26	10.4	13.2	15.7	20	24	29
x2 = 0.9	4.8	6.08	7.64	9.93	11.6	15.1	18.8	23.2

c1ccc2[nH]c(-c3cscn3)nc2c1 + CC(C)O + O
solubility (g/100 g solution)
Details	283.15 K	288.15 K	293.15 K	298.15 K	303.15 K	308.15 K	313.15 K	318.15 K	323.15 K
x2 = 0.03225	0.00182	0.0023	0.00284	0.00356	0.0044	0.00539	0.00665	0.00808	0.00978
x2 = 0.06974	0.00792	0.00964	0.0123	0.015	0.0183	0.022	0.0263	0.0311	0.0368
x2 = 0.1139	0.0206	0.0251	0.0303	0.0374	0.0453	0.0539	0.064	0.0751	0.0876
x2 = 0.1666	0.0372	0.0456	0.0555	0.0669	0.0796	0.0936	0.113	0.131	0.156
x2 = 0.2307	0.0599	0.0732	0.0858	0.101	0.121	0.143	0.169	0.197	0.23
x2 = 0.3103	0.0907	0.109	0.127	0.148	0.178	0.204	0.234	0.27	0.312
x2 = 0.4117	0.131	0.154	0.181	0.213	0.249	0.287	0.329	0.379	0.433
x2 = 0.5454	0.16	0.192	0.225	0.262	0.301	0.347	0.399	0.459	0.529
x2 = 0.7297	0.197	0.23	0.268	0.309	0.36	0.413	0.47	0.534	0.6

S=c1[nH]ncs1 + CCCO + O
solubility (g/100 g solution)
Details	278.15 K	283.15 K	288.15 K	293.15 K	298.15 K	303.15 K	308.15 K	313.15 K	318.15 K	323.15 K
x2 = 0.1	1.64	2.13	2.71	3.49	4.42	5.59	6.98	8.6	10.7	13.4
x2 = 0.2	3.48	4.3	5.41	6.75	8.22	10	12.1	14.6	17.5	20.8
x2 = 0.3	5.01	6.25	7.53	9.11	10.8	12.9	15.4	18.1	21.5	25.1
x2 = 0.4	6.2	7.46	8.98	10.7	12.7	14.7	17.2	20.1	23.3	26.9
x2 = 0.5	7.02	8.48	9.9	11.7	13.5	15.7	18.1	20.8	23.9	27.3
x2 = 0.6	7.59	8.9	10.3	11.9	13.8	15.9	18.2	20.4	23.3	26.4
x2 = 0.7	7.61	8.94	10.3	11.8	13.6	15.4	17.3	19.7	22.2	25.2
x2 = 0.8	7.47	8.6	9.84	11.4	13.1	14.6	16.8	18.9	21.2	24.1
x2 = 0.9	6.73	8.12	8.99	10.4	11.8	13.5	15.3	17.3	19.6	22.2

c1ccc2[nH]c(-c3cscn3)nc2c1 + CCCO + O
solubility (g/100 g solution)
Details	283.15 K	288.15 K	293.15 K	298.15 K	303.15 K	308.15 K	313.15 K	318.15 K	323.15 K
x2 = 0.03225	0.00325	0.00407	0.00514	0.00634	0.00789	0.00974	0.0118	0.0143	0.0173
x2 = 0.06974	0.0139	0.017	0.021	0.0263	0.0319	0.0383	0.0458	0.0545	0.0646
x2 = 0.1139	0.0334	0.0402	0.0487	0.0585	0.0703	0.0828	0.0976	0.116	0.136
x2 = 0.1666	0.0767	0.09	0.106	0.122	0.142	0.162	0.188	0.212	0.242
x2 = 0.2307	0.141	0.163	0.188	0.216	0.249	0.284	0.321	0.365	0.413
x2 = 0.3103	0.21	0.243	0.282	0.322	0.367	0.415	0.47	0.525	0.592
x2 = 0.4117	0.291	0.331	0.38	0.435	0.497	0.563	0.633	0.707	0.794
x2 = 0.5454	0.37	0.423	0.483	0.545	0.62	0.699	0.785	0.879	0.983
x2 = 0.7297	0.425	0.482	0.553	0.623	0.708	0.79	0.883	0.986	1.1

CC(C)=CCCC(C)C1CCC2(C)C3=C(CCC12C)C1(C)CCC(O)C(C)(C)C1CC3 (stereo not drawn) + CCO + O
solubility (g/100 g solution)
Details	278.15 K	288.15 K	298.15 K	308.15 K	318.15 K
x2 = 0.01604	3.88e-05	6.47e-05	0.000106	0.000176	0.000263
x2 = 0.1154	0.000122	0.000181	0.000283	0.000357	0.000444
x2 = 0.3147	0.000276	0.000461	0.000699	0.00134	0.00191
x2 = 0.7415	0.245	0.366	0.512	0.754	0.839

Cc1[nH]c(=O)c(C#N)cc1-c1ccncc1 + CCO + O
solubility (g/100 g solution)
Details	278.15 K	283.15 K	288.15 K	293.15 K	298.15 K	303.15 K	308.15 K	313.15 K	318.15 K	323.15 K
x2 = 0.04165	0.000675	0.000813	0.000966	0.00114	0.00133	0.00153	0.00174	0.00198	0.00224	0.00254
x2 = 0.08908	0.000855	0.00103	0.00123	0.00144	0.00169	0.00194	0.00221	0.00251	0.00285	0.00321
x2 = 0.1436	0.00114	0.00138	0.00163	0.00192	0.00225	0.00258	0.00294	0.00333	0.00377	0.00426
x2 = 0.2068	0.00154	0.00186	0.00221	0.00259	0.00303	0.00348	0.00395	0.00447	0.00505	0.0057
x2 = 0.2812	0.00206	0.00239	0.00288	0.00338	0.0039	0.00453	0.00517	0.00586	0.00662	0.00754
x2 = 0.3698	0.00266	0.00322	0.00381	0.00446	0.00518	0.00596	0.00676	0.00763	0.0086	0.00968
x2 = 0.4772	0.00326	0.00385	0.00461	0.0054	0.00629	0.00717	0.00815	0.00921	0.0105	0.0119
x2 = 0.6101	0.00373	0.00451	0.0054	0.00637	0.00745	0.00844	0.00959	0.0108	0.0122	0.0138
x2 = 0.7788	0.00412	0.00503	0.00602	0.00705	0.00817	0.00928	0.0105	0.0119	0.0135	0.0153
